Numbered stars: 1 amine (or outer) side, 2 acyl side, 3 side chain; on linkers, the order of the positions; unused ones are H or OH. Square brackets hold non-standard residues; d marks the D form. Peptide text beside a SMILES is read from it. N(2-(2-PhOPh)Et)Gly = O=C(O)CNCCc1ccccc1Oc1ccccc1; Gly(N-3,5-(OMe)2-Ph) = COc1cc(NCC(=O)O)cc(OC)c1; X1 = COc1ccc([C@H](C)N(CC(=O)[*:2])[*:1])cc1; N((CH2)3OiPr)Gly = CC(C)OCCCNCC(=O)O
What was measured:
[1] = target: T1, β-catenin:TCF4 protein interaction (Homo sapiens, UniProt P35222); assay: Co-immunoprecipitation of myc-TCF4 and endogenous β-catenin in HEK293 cells; assay type: cell-based; conditions: HEK293 cells with myc-TCF4, 10 µM, 48 h, vs vehicle
T1 construct: host or cells: HEK293
T1 sequence (P35222 2-781 limits assumed): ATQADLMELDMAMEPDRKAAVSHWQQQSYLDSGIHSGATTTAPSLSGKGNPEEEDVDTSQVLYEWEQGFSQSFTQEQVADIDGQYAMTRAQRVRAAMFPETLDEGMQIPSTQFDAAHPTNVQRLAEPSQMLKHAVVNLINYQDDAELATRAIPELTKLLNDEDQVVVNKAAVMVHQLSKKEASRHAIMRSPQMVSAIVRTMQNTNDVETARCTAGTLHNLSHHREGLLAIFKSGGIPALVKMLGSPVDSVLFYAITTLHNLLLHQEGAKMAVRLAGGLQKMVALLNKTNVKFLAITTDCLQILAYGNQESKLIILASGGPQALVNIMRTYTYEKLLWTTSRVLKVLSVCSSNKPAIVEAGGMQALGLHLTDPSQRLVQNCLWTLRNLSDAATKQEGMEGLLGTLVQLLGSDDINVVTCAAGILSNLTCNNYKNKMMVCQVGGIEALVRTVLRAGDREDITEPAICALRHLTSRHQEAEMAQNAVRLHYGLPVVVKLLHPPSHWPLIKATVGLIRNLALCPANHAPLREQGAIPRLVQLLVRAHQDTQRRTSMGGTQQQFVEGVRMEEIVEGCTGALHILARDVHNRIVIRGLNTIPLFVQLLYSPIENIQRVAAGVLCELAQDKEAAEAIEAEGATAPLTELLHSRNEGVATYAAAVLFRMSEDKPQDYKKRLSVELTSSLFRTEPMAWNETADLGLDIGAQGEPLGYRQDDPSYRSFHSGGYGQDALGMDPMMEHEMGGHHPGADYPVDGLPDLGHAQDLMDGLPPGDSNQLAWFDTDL
Protocol: (§1) We next characterized the dose response curves for compound 13 in the Wnt and AR luciferase reporters. The linear version of 13 (linear 13: NH2-|N-mpp, N-dmp, N-ipp, N-Smpe, N-Smpe, D-Ala|-OH) was used as a control compound. […] To test direct binding, we pre-formed dynamic light scattering (DLS) with β-catenin in the presence of vehicle, compound 13, and α-cyclodextrin. […] HEK293 cells were transiently transfected with a plasmid expressing full length, myc-tagged TCF4. After 48 h treatment with either vehicle (DMSO) or 10 µM 13, cells were lysed and myc-TCF4 protein was immunoprecipitated.
LNCaP-abl and LNCaP-95 cells were cultured in indicator free RPMI 1640 media (Life) supplemented with 10% charcoal stripped FBS, 1% pennicillin/streptomycin, and 1% L-Glutamine. HEK-293 Cells were cultured in DMEM media (Life) supplemented with 10%FBS and 1% pennicillin/streptomycin. A549 and U2OS cells were cultured in RPMI 1640 media (Life) and McCoy’s 5 A modified media (Life), respectively, both supplemented with 10%FBS and 1% pennicillin/streptomycin. […] Both were measured using the ONE-Glo detection kit (Promega) and data is standardized to CellTiter-Fluor (Promega) viability readings to account for potential variations in well to well cell number. […] Total protein concentration in cell lysates were determined using Pierce Rapid Gold BCA Protein Assay Kit (Thermo). […]

[2] = test system: U2OS (osteosarcoma) cells; assay: 2D proliferation (CellTiter-Fluor viability), U2OS; assay type: cell-based; conditions: Wnt-independent cell line, 5 days
[3] = target: β-catenin:TCF4 interaction (Homo sapiens, UniProt P35222); assay: biochemical
Protocol: as §1

[4] = test system: A549 (lung adenocarcinoma) cells; assay: 2D proliferation (CellTiter-Fluor viability), A549; assay type: cell-based; conditions: Wnt-independent cell line, 5 days

## COc1ccc([C@H](C)N2CC(=O)N[C@H](C)C(=O)N(CCc3ccccc3Oc3ccccc3)CC(=O)N(c3cc(OC)cc(OC)c3)CC(=O)N(CCCOC(C)C)CC(=O)N([C@@H](C)c3ccc(OC)cc3)CC2=O)cc1 [Compound 13] (cyclo([dA][N(2-(2-PhOPh)Et)Gly][Gly(N-3,5-(OMe)2-Ph)][N((CH2)3OiPr)Gly][X1][X1]))
[1]
  β-catenin:TCF association (co-immunoprecipitated β-catenin): decreased
[2]
  Effect on proliferation of U2OS cells: no effect
[3]
  IC50: 5.44 µM
[4]
  Effect on proliferation of A549 cells: no effect

— publication PMC6199279, “Design of Peptoid-peptide Macrocycles to Inhibit the β-catenin TCF Interaction in Prostate Cancer” (Nature Communications, 2018)
